{
  "source": "patent US10364470B2",
  "about": "“Long non-coding RNA expressed in aggressive cancer” (The Regents of the University of California, priority 2014, dated 2019)",
  "format_in_all_cases": "cell-based, human",
  "key": {"BT549 cells": {"tested_on": "BT549 cells", "assay": "Growth rate of BT549 cells after SAILOR knockdown", "from_the_text": "(§1) The effect of SAILOR on the growth rate of BT549 cells was studied. SAILOR expression was reduced by ˜80% in BT549 cell lines with a short-hairpin RNA (shRNA), 5′-[…]-3′ (SEQ ID NO:14), which targets SAILOR exon 4 at sequence […] (SEQ ID NO:15) (FIG. 5)."}, "SAILOR": {"tested_on": "SAILOR", "assay": "SAILOR knockdown with shRNA in BT549 cell lines", "from_the_text": "as §1"}, "SATB1": {"tested_on": "SATB1", "assay": "SATB1 transcription or protein level after SAILOR knockdown", "details": "BT549 cells"}},
  "data": [
    {"substance": "5′-GGTGGAAGAGTAAACTGTTCCCGAAGGAACAGTTTACTCTTCCACC-3′ (expressed or natural sequence) [shRNA]", "values": [
      {"measurement": "growth rate of SAILOR knockdown cells", "setting": "BT549 cells", "value": "slowed growth rate"},
      {"measurement": "SAILOR expression reduced (knock down)", "setting": "SAILOR", "value": "~80", "unit": "%"},
      {"measurement": "effect of reduced SAILOR levels on SATB1 transcription or protein level", "setting": "SATB1", "value": "did not affect"}
    ]}
  ]
}
